Test results reported in US9629843B2, “MTOR modulators and uses thereof” (The Regents of the University of California, priority 2008, dated 2017).

How the values were obtained:
PC3 cells = experiment: Inhibition of proliferation of PC3 cells; assay type: cell-based; details: Homo sapiens, PC-3
PI3K α = biological target: T1, PI3K α (Homo sapiens, UniProt P42336); experiment: Kinase inhibition assay, PI3K α; assay type: biochemical
T1 construct: Purified kinase domains (e.g. mTor, P110α, P110β, P110γ, P110δ, PI4Kβ, DNA-PK, PKCα, PKCβ1, PKCβII, RET, and JAK2)
T1 sequence (P42336 765-1051 limits assumed): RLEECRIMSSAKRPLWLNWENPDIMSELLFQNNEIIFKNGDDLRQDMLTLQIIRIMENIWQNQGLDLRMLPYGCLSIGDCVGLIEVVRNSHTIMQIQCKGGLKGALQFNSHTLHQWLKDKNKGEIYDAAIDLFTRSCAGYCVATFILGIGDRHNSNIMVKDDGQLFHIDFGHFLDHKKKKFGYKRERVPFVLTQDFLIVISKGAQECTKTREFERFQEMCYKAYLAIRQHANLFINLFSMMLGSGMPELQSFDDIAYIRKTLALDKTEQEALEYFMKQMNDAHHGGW
T1 sequence (P27986 whole entry partner, the tested form may be a part): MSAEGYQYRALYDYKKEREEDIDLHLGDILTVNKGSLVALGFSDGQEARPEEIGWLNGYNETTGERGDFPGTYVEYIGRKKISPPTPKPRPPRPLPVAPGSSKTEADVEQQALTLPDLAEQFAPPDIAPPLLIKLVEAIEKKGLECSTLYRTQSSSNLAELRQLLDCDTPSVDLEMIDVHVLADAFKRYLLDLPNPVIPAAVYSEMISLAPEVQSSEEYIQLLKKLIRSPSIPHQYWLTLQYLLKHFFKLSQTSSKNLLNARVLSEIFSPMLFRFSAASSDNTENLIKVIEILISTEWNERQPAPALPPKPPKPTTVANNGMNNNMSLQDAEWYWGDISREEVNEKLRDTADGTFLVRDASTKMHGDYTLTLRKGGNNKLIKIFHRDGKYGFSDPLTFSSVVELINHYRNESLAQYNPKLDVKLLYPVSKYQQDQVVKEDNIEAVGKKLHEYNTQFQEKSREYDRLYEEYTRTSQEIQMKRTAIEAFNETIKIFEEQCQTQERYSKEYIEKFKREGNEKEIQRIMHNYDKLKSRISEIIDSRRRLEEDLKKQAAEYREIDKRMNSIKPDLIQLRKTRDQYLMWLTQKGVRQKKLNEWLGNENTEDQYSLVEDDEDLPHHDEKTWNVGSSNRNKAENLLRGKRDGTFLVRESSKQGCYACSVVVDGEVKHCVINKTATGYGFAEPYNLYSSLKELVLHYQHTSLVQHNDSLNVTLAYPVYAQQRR

mTor = biological target: T2, mTor (Homo sapiens, UniProt P42345); experiment: Kinase inhibition assay, mTor; assay type: biochemical
T2 construct: Purified kinase domains (e.g. mTor, P110α, P110β, P110γ, P110δ, PI4Kβ, DNA-PK, PKCα, PKCβ1, PKCβII, RET, and JAK2)
T2 sequence (P42345 2156-2469 limits assumed): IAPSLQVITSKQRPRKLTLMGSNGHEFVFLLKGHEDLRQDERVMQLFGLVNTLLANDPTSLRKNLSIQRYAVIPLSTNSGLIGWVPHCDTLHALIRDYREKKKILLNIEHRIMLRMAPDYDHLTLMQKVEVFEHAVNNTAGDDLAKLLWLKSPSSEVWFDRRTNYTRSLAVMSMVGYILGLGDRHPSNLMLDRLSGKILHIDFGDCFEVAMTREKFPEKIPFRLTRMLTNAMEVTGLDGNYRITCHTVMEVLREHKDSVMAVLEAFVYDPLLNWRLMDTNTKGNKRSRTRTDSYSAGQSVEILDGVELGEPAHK

PI3K γ = biological target: T3, PI3K γ (Homo sapiens, UniProt P48736); experiment: Kinase inhibition assay, PI3K γ; assay type: biochemical
T3 construct: Purified kinase domains (e.g. mTor, P110α, P110β, P110γ, P110δ, PI4Kβ, DNA-PK, PKCα, PKCβ1, PKCβII, RET, and JAK2)
T3 sequence (P48736 797-1080 limits assumed): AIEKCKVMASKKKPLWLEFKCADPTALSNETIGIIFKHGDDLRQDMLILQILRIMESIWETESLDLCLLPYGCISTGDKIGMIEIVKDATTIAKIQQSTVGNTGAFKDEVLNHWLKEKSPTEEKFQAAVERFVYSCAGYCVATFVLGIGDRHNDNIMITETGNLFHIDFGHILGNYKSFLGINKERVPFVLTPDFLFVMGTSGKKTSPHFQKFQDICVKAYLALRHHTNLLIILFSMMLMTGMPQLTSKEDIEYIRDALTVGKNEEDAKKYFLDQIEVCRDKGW

PI3K β = biological target: T4, PI3K β (Homo sapiens, UniProt P42338); experiment: Kinase inhibition assay, PI3K β; assay type: biochemical
T4 construct: Purified kinase domains (e.g. mTor, P110α, P110β, P110γ, P110δ, PI4Kβ, DNA-PK, PKCα, PKCβ1, PKCβII, RET, and JAK2)
T4 sequence (P42338 772-1053 limits assumed): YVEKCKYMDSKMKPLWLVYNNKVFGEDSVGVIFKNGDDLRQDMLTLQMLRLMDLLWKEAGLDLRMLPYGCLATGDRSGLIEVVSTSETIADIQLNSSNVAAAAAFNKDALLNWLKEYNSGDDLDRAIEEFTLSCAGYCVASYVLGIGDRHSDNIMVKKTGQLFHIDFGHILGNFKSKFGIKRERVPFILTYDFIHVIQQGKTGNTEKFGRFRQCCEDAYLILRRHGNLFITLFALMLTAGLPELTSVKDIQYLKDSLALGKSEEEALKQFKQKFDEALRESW
T4 sequence (P27986 whole entry partner, the tested form may be a part): as the sequence (P27986 whole entry partner, the tested form may be a part) above

PI3K δ = biological target: T5, PI3K δ (Homo sapiens, UniProt O00329); experiment: Kinase inhibition assay, PI3K δ; assay type: biochemical
T5 construct: Purified kinase domains (e.g. mTor, P110α, P110β, P110γ, P110δ, PI4Kβ, DNA-PK, PKCα, PKCβ1, PKCβII, RET, and JAK2)
T5 sequence (O00329 745-1027 limits assumed): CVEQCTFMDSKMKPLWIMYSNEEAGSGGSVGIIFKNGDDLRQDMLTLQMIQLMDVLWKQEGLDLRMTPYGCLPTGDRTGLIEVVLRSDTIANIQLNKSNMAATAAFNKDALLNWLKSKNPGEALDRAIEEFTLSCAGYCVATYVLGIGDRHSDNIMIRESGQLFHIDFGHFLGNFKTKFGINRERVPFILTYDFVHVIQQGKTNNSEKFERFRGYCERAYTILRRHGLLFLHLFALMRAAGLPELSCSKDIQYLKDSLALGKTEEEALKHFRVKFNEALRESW
T5 sequence (P27986 whole entry partner, the tested form may be a part): as the sequence (P27986 whole entry partner, the tested form may be a part) above

p190 transduced cells [1] = experiment: Combination with imatinib on p190 transduced cells (MTS, combination index); assay type: cell-based, murine
p190 transduced cells [2] = experiment: MTS viability assay of p190 transduced cells; assay type: cell-based, murine
[3] = test system: p190 BCR-Abl transformed bone marrow cells; experiment: Colony forming assay with p190 BCR-Abl transformed murine bone marrow cells; assay type: cell-based; details: compared to rapamycin; FIG. 17
[4] = test system: ENaC-dependent Na+ current; experiment: ENaC-dependent Na+ transport in mpkCCD cells; details: prolonged treatment (>24 h)
p190 leukemic cells = experiment: Syngenic mouse leukemia transplant model (p190); assay type: in vivo, Balb/c mice; details: for number of cycling leukemic blasts / apoptosis of leukemic blast cells: bone marrow and spleen; for number of cycling leukemic blasts: FIG. 23; for apoptosis of leukemic blast cells: FIG. 24
Description: The murine bone marrow infection/transplantation method was used to determine the effect of kinase inhibitors on disregulated cellular proliferation […]. The MSCV-p190-BCR-Abl-Ires-GFP (MIG-p190) or MSCV-p190-BCR-Abl-Ires-hCD4Δtail (MIC-p190) retroviral vectors were assembled in 293T cells and used to transduce bone marrow cells. The GFP and CD4Δtail markers allow quantitation by FACS analysis and/or enrichment by magnetic sorting of transduced cells.
These cells were administered together with a radioprotective dose of about 5×10^6 normal bone marrow cells from 3-5 week old donor Balb/c mice. […] Mice who became sick after about 14 days were euthanized and lymphoid organs were harvested for analysis. Kinase inhibitor treatment began about 10 days after leukemic cell injection and continued daily until the mice became sick or a maximum of approximately 35 days post-transplant. Inhibitors were given by oral lavage.
Peripheral blood cells were collected approximately on day 10 (pre-treatment) and upon euthanization (post treatment), contacted with labeled anti-hCD4 antibodies and counted by flow cytometry.
Mice were injected with the BrdU analogue EdU and sacrificed. Bone marrow and spleen were collected, blast cells were harvested from the tissue, and stained with antibodies to hCD4, and analyzed by flow cytomtery.
Bone marrow and spleen were collected, blast cells were harvested from the tissue, and stained with antibodies to hCD4, Annexin V, and 7AAD, and analyzed by flow cytometry. […] The results also show significant increase at the concentrations examined in induction of apoptosis at the concentrations examined of imatinib in combination with rapamycin or PI-103.

[5] = test system: CD19+ CD34+ B cell progenitors from Ph+ and Ph− patients; experiment: Colony forming assay with human B-ALL cells; assay type: cell-based; details: about 50 nM dasatinib; FIG. 18
[6] = test system: Akt phosphorylation (S473, T308) in L6 myotubes; experiment: Akt phosphorylation in insulin stimulated L6 myotubes (immunoblot); assay type: cell-based; details: 100 nM insulin, FIG. 3
Description: L6 myoblasts were grown typically grown in DMEM supplemented with about 10% FBS, glutamine and penicillin/streptomycin. Confluent L6 myoblasts were differentiated into mytubes by culturing them for approximately 5 days in media containing about 2% FBS. L6 myotubes were maintained in media containing approximately 2% FBS until use.
In order to compare the effect of TORKinibs and PIK-90 on Akt phosphorylation, L6 myotubes were serum starved overnight and incubated with inhibitors or about 0.1% DMSO for approximately 30 minutes prior to stimulation with insulin (e.g. 100 nM) for about 10 minutes. Cells were lysed by scraping into ice cold lysis buffer (generally: 300 mM NaCl, 50 mM Tris pH 7.5, 5 mM EDTA, 1% TRITON™ X-100, 0.02% NaN3, 20 nM microcystin, Sigma phosphatase inhibitor cocktails 1 and 2, Roche protease inhibitor cocktail and 2 mM PMSF). After contacting cells with lysis buffer, the solution was briefly sonicated. Lysates were cleared by centrifugation, resolved by SDS-PAGE, transferred to nitrocellulose and immunoblotted using antibodies to phospho-Akt S473, phospho-Akt T308, Akt, and β-actin (Cell Signaling Technologies).

[7] = test system: Akt substrates (GSK3, TSC2, FoxO1/O3a) in L6 myotubes; experiment: Phosphorylation of Akt substrates in insulin stimulated L6 myotubes; assay type: cell-based; details: FIG. 6
[8] = test system: S6K, S6, 4EBP1 phosphorylation in L6 myotubes; experiment: Phosphorylation of S6K, S6 and 4EBP1 in insulin stimulated L6 myotubes; assay type: cell-based
[9] = test system: Akt phosphorylation (S473, T308) in MEFs; experiment: Akt phosphorylation in wild-type and SIN1−/− mouse embryonic fibroblasts (immunoblot); assay type: cell-based; details: SIN1−/− MEFs
Description: Wild-type and SIN1−/− primary mouse embryonic fibroblasts (MEFs) were grown in DMEM supplemented with about 10% FBS, glutamine and penicillin/streptomycin. MEFs were treated with TORKinib at about 2.5, 0.63, and 0.16 uM; rapamycin at approximately 15 nM; or PIK-90 at 625 nM for 30 minutes prior to insulin stimulation (e.g. 100 nM) for 10 minutes. Cells were lysed by scraping into ice cold lysis buffer (typically 300 mM NaCl, 50 mM Tris pH 7.5, 5 mM EDTA, 1% TRITON™ X-100, 0.02% NaN3, 20 nM microcystin, Sigma phosphatase inhibitor cocktails 1 and 2, Roche protease inhibitor cocktail and 2 mM PMSF). After contacting cells with lysis buffer, the solution was briefly sonicated. Lysates were cleared by centrifugation, resolved by SDS-PAGE, transferred to nitrocellulose and immunoblotted using antibodies to phospho-Akt S473, phospho-Akt T308, Akt, and β-actin (Cell Signaling Technologies).

PKCα = biological target: T6, PKCα (Homo sapiens, UniProt P17252); experiment: Kinase inhibition assay, PKCα; assay type: biochemical; details: at about 1 μM or less
T6 construct: Purified kinase domains (e.g. mTor, P110α, P110β, P110γ, P110δ, PI4Kβ, DNA-PK, PKCα, PKCβ1, PKCβII, RET, and JAK2)

AML = experiment: Colony assay using AML specimens; assay type: cell-based, Human; details: expected
Description: Human Ph− B-ALL and AML specimens are obtained. Ph− B-ALL and AML are cytogenetically diverse, with diverse therapeutic regimens currently in use depending on patient risk factors. The majority of Ph− B-ALL patients are treated initially with a combination of three drugs: glucocorticoid (e.g. dexamethasone), vincristine, and asparaginase or anthracycline (e.g. daunorubicin). Most AML patients receive an anthracycline only. Pilot experiments with 3 patient samples are conducted to determine concentrations of vincristine (Ph− ALL) or daunorubicin (AML) that partially reduce colony formation in methylcellulose. It is expected that these drugs are effective in the range of 0.1-1 μM (vincristine) and 3-30 nM (daunorubicin). Optionally, the Ph-ALL assays may be supplemented with dexamethasone and/or daunorubicin.

[10] = test system: cap-dependent translation; experiment: Cap-dependent translation, m7GTP affinity, p190 cells; assay type: cell-based; details: IM at 5 μM; FIG. 38D
[11] = test system: myristolated-Akt transgenic thymocytes tumors; experiment: Akt murine allograft tumor model; assay type: in vivo, NOD/SCID mice; details: after 20 days of treatment
Ph− B-ALL = experiment: Colony assay using Ph− B-ALL specimens; assay type: cell-based, Human; details: expected

SMILES: CC(C)n1nc(-c2cc3ccccc3[nH]2)c2c(N)ncnc21
- IC50 (PC3 cells): 2.06 µM
- IC50 (PI3K α): 11.2 µM
- IC50 (mTor): 0.079 µM

SMILES: CC(C)n1nc(-c2cc3cccc(O)c3[nH]2)c2c(N)ncnc21
- IC50 (PC3 cells): 0.038 µM
- IC50 (PI3K α): 3.46 µM
- IC50 (PI3K γ): 0.45 µM
- IC50 (PI3K β): 3.58 µM
- IC50 (mTor): 0.0007 µM
- IC50 (PI3K δ): 0.33 µM

SMILES: CC(C)n1nc(-c2cc3ccc(O)cc3[nH]2)c2c(N)ncnc21
- IC50 (PC3 cells): 1 µM
- IC50 (PI3K α): 0.279 µM
- IC50 (PI3K γ): 0.115 µM
- IC50 (PI3K β): 2.16 µM
- IC50 (mTor): 0.026 µM
- IC50 (PI3K δ): 0.395 µM

SMILES: CC(=O)N1CCC(n2nc(-c3cc4cc(O)ccc4[nH]3)c3c(N)ncnc32)CC1
- IC50 (PC3 cells): 11.8 µM
- IC50 (PI3K α): 5.75 µM
- IC50 (PI3K β): 25 µM
- IC50 (mTor): 0.014 µM
- IC50 (PI3K δ): 9.8 µM

SMILES: Cn1c(=O)n(-c2ccc(C(C)(C)C#N)cc2)c2c3cc(-c4cnc5ccccc5c4)ccc3ncc21 [BEZ235]
- synergy with imatinib (combination index) (p190 transduced cells [1]; over a broad dose range, FIG. 16): moderate to strong synergy
- IC50 (p190 transduced cells [2]; Mus musculus, stated as treatment concentration = IC50): ~0.005 µM
- colony forming activity in combination with imatinib [3]: potentiate the effects of a half maximal concentration of imatinib

SMILES: Cc1ccccc1-n1c(Cn2cnc3c(N)ncnc32)nc2cccc(C)c2c1=O [IC87114]
- type of effect on cell viability (p190 transduced cells [2]; plateau at high concentrations, 48 hrs): primarily cytostatic

SMILES: O=c1cc(N2CCOCC2)oc2c(-c3ccccc3)cccc12 [LY294002, reference compound]
- toxic effect of prolonged treatment [4]: diminishes electrical resistance and causes morphological changes

SMILES: Oc1cccc(-c2nc(N3CCOCC3)c3oc4ncccc4c3n2)c1 [PI-103]
- effect on anti-proliferative effects of imatinib (p190 transduced cells [1]; 48 hrs MTS, FIG. 19): potentiate the anti-proliferative effects of imatinib
- combination index with imatinib (p190 transduced cells [1]; over a broad dose range, FIG. 20): more synergistic than rapamycin
- number of cycling leukemic blasts (p190 leukemic cells): significantly reduced the number of cycling leukemic blasts
- apoptosis of leukemic blast cells (p190 leukemic cells): induction of apoptosis in leukemic blast cells
- colony formation in combination with dasatinib [5]: stronger effect of dasatinib-PI-103 combination as compared to dasatinib-rapamycin combination

SMILES: COc1ccc2c(c1OC)N=C(NC(=O)c1cccnc1)N1CCN=C21 [PIK-90, reference compound]
- insulin stimulated phosphorylation of Akt at S473 and T308 [6]: inhibit the phosphorylation of both Akt sites equipotently
- phosphorylation of Akt and its substrates [7]: completely inhibited
- phosphorylation of 4EBP1 at T37/46 [8]: does not reduce
- phosphorylation of Akt T308 [9]: blocks phosphorylation of T308

SMILES: CC(C)n1nc(-c2cccc(C(=O)NC3=NCCS3)c2)c2c(N)ncnc21 [PP30]
- inhibition of PKCα (PKCα): does not inhibit PKCα significantly
- insulin stimulated phosphorylation of Akt at S473 and T308 [6]: inhibit insulin stimulated phosphorylation of Akt at S473
- phosphorylation of 4EBP1 at T37/46 [8]: able to inhibit

SMILES: COc1cccc2c1C(=O)c1c(O)c3c(c(O)c1C2=O)C[C@@](O)(C(C)=O)C[C@@H]3O[C@H]1C[C@H](N)[C@H](O)[C@H](C)O1 [daunorubicin]
- effective range, partial reduction of colony formation (AML): 3 to 30 nM

SMILES: Cc1ccc(NC(=O)c2ccc(CN3CCN(C)CC3)cc2)cc1Nc1nccc(-c2cccnc2)n1 [imatinib]
- number of cycling leukemic blasts (p190 leukemic cells): significantly reduced the number of cycling leukemic blasts
- apoptosis of leukemic blast cells (p190 leukemic cells): induction of apoptosis in leukemic blast cells
- splenomegaly (p190 leukemic cells; oral lavage daily, FIG. 21): significant decrease in splenomegaly
- cap-dependent translation [10]: inhibit cap-dependent translation

SMILES: CO[C@H]1C[C@@H]2CC[C@@H](C)[C@@](O)(O2)C(=O)C(=O)N2CCCC[C@H]2C(=O)O[C@H]([C@H](C)C[C@@H]2CC[C@@H](O)[C@H](OC)C2)CC(=O)[C@H](C)/C=C(\C)[C@@H](O)[C@@H](OC)C(=O)[C@H](C)C[C@H](C)/C=C/C=C/C=C/1C [rapamycin, reference compound]
- body weight [11]: maintained body weight

SMILES: CC[C@]1(O)C[C@H]2CN(CCc3c([nH]c4ccccc34)[C@@](C(=O)OC)(c3cc4c(cc3OC)N(C=O)[C@H]3[C@@](O)(C(=O)OC)[C@H](OC(C)=O)[C@]5(CC)C=CCN6CC[C@]43[C@@H]65)C2)C1 [vincristine, reference compound]
- effective range, partial reduction of colony formation (Ph− B-ALL): 0.1 to 1 µM
